Converted amounts (≈) assume the structure as drawn. Read-outs that look alike come from different tables or passages of the source.
Assays:
NIH/3T3 cells = assay: Cytotoxicity (MTT cell growth inhibition) test; type: cell-based; details: Mus musculus, read-out: 50% NIH/3T3 cell growth inhibition concentration, (IC50)
Description: (§1) These assays included determination of 50% SrtA inhibition concentration (IC50) of the newly synthesized derivative in dose-response experiments using the recombinant sortase A enzyme incubated with FRET peptide substrate containing the LPETG motif, minimal inhibitory concentration (MIC) test with two staphylococcal species to measure the antimicrobial efficacy of the new inhibitory molecule, and toxicity test using a normal mouse embryonic fibroblasts cell line NIH/3T3 to determine the cell growth IC50 inhibitory concentration.
The growth inhibitory effect of the newly synthesized compound was studied on NIH/3T3mouse fibroblast cell line. NIH/3T3 cells were seeded into 96-well microplates with initial density of 1x10^4 cells per well in DMEM culture medium with 10% FCS. After 24 hours of incubation, cells were exposed to a graded series of concentrations of chemical compounds for additional 48 hours. The cell medium was removed and 100 µl of fresh culture medium without phenol red and 1 mM MTT solution was added to each well. After 3 hours of incubation, an equal volume of 1% SDS-HCl solution was added and plates were incubated for additional 4 hours. Absorbance was measured at 570 nm and the data were fitted to a four parameter variable slope equation to determine the IC50 value. […]

Staphylococcus aureus = assay: MIC test, broth dilution micromethod; type: cell-based; details: for MIC: Staphylococcus aureus, 24 hours at 37 °C, complete inhibition of cell growth, read-out: MIC, S.aureus
Description: as §1
(§2) The MIC values of test compounds that inhibited cell growth of Gram-positive Staphylococcus aureus and S. epidermidis were determined by broth dilution micromethod. A series of solutions with a range from 0.1 µg/ml to 400 µg/ml were made in using a logarithmical phase culture with OD600 = 0.1 (corresponds to ∼1.2 x 10^8 CFU/ml in 96-well plate standard. The plate was incubated at 37 °C for 24 hours and growth was assayed with a microplate reader by monitoring the absorption at 600 nm. All experiments were done in triplicate, and repeated three times.

S. epidermidis = assay: MIC test, broth dilution micromethod; type: cell-based; details: Staphylococcus epidermidis; 24 hours at 37 °C, complete inhibition of cell growth
Description: as §1, §2

S. aureus sortase A = biological target: T1, S. aureus sortase A (Staphylococcus aureus, UniProt Q2FV99); assay: SrtA enzyme FRET inhibition assay (recombinant sortase A, FRET peptide substrate with LPETG motif); type: biochemical; details: SrtA inhib. concentration, means ±SD (n = 5)
T1 construct: expressed with an N-terminal deletion of 59 amino acid residues (SrtAΔNS9, residues 60-206); made in house
Text: The catalytically active recombinant sortase A enzyme used for these studies was expressed with an N-terminal deletion of 59 amino acid residues (SrtAΔNS9, residues 60-206). The first step included high-throughput screening of potent S. aereus SrtA inhibitors and selection of new antibacterial substances as sortase A inhibitors. In order to identify potent inhibitors of S. aureus sortase A, a high-throughput screening (HTS) of a diverse library of 50,000 drug-like low-molecular weight molecules was performed, which led to the identification of novel promising drug candidates.
as §1
Values are means ±SD (n = 5).

SrtA = biological target: T2, SrtA (Staphylococcus aureus, UniProt Q2FV99); assay: Binding to SrtA monitored by 2D [15N,1H]-HSQC NMR spectroscopy, with dialysis; details: 0.3 mM (1.0 equivalents) inhibitor, after dialysis against NMR sample buffer
T2 construct: expressed with an N-terminal deletion of 59 amino acid residues (SrtAΔNS9, residues 60-206); made in house
Text: • Fig. 1 - represents the binding of a selected inhibitor N-(adamantan-1-yl)-2-(3-oxo-2,3-dihydro-1,2-benzothiazol-2-yl)acetamide to SrtA monitored by 2D [^15N,^1H]-HSQC NMR spectroscopy. (a) Spectrum of SrtA in absence of inhibitor. […] (a) SrtA active site after modification by inhibitor. The inhibitor (in cyan) and near-by side chains of SrtA are shown with sticks and labeled. Side chains are colored according to their type: hydrophobic in yellow, negatively charged in red, positively charged in blue and hydrophilic in grey. Hydrogens are omitted for clarity. […] (c) Molecular surface representation of SrtA in complex with inhibitor. It can be seen in the figure that the inhibitor occupies almost all volume of the substrate pocket, the majority of interactions are hydrophobic and hydrogen bond is at the R139.
Determination of the complex structure of selected inhibitor and sortase enzyme was performed by using the nuclear magnetic resonance (NMR) spectroscopy methods. The collected NMR data allowed to specify the structure of inhibitory complexes.
To verify that the selected inhibitor can react with a cysteine thiol (such as the SrtA active site C 184) we performed a reaction with cysteine in the NMR tube and observed the formation of a covalent adduct (Figure 2). The chemical structure of the product was verified using proton 1D and 2D NMR methods.

T1 sequence (Q2FV99 60-206): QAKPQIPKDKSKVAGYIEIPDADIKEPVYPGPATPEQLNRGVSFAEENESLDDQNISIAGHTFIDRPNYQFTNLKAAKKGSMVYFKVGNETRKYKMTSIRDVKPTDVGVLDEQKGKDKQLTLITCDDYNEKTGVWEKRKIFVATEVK
T2 sequence (Q2FV99 60-206): as above

Structure (SMILES) | IC50 (NIH/3T3 cells; NIH3T3, 48 hours exposure, MTT, mean of three independent experiments ±SD) | MIC (Staphylococcus aureus) | MIC values of the new compound in comparison to the initial hit molecule (Staphylococcus aureus; average over S. aureus and S. epidermidis) | MIC (S. epidermidis) | IC50 (S. aureus sortase A) | IC50 (NIH/3T3 cells; NIH3T3, 48 h) | binding of inhibitor to SrtA (reversibility) (SrtA)
O=C(Cn1sc2ccccc2c1=O)NNC(=O)C12CC3CC(CC(C3)C1)C2 [N'-(2-(3-oxobenzo[d]isothiazol-2(3H)-yl)acetyl)adamantane-1-carbohydrazide] | 12.1 µg/mL (≈ 31.4 µM) | 16 µg/mL (≈ 41.5 µM) | ~10 fold | 4 µg/mL (≈ 10.4 µM) | 3.8 µM | – | –
O=C(Cn1sc2ccccc2c1=O)NC12CC3CC(CC(C3)C1)C2 [N-(adamantan-1-yl)-2-(3-oxo-2,3-dihydro-1,2-benzothiazol-2-yl)acetamide] | – | 1 µg/mL (≈ 2.92 µM) | – | 0.5 µg/mL (≈ 1.46 µM) | 6.2 µM | 1.3 µg/mL (≈ 3.8 µM) | irreversibly

Source: patent publication EP2875815A1, “N'-(2-(3-oxobenzo[d]isothiazol-2(3h)-yl)acetyl)adamantane-1-carbohydrazide as a novel inhibitor for staphylococcus aureus sortase a” (Latvian Biomedical Research and Study Centre, priority 2013, dated 2015)
